Reference: ChEMBL document CHEMBL4507317, “Data for DCP probe BAY-899” (2021)

Tests used:
[1] = target: Rho-associated protein kinase 2 (Homo sapiens) (UniProt O75116); conditions: Compound concentration 1000.0 nM
[2] = target: Aurora kinase A (Homo sapiens) (UniProt O14965); conditions: Compound concentration 1000.0 nM
[3] = target: Tyrosine-protein kinase Yes (Homo sapiens) (UniProt P07947); conditions: Compound concentration 1000.0 nM
[4] = target: NUAK family SNF1-like kinase 1 (Homo sapiens) (UniProt O60285); conditions: Compound concentration 1000.0 nM
[5] = target: Serine/threonine-protein kinase 17B (Homo sapiens) (UniProt O94768); conditions: Compound concentration 1000.0 nM
[6] = target: Cyclin-dependent kinase 2 (Homo sapiens) (UniProt P24941); conditions: Compound concentration 1000.0 nM
[7] = system: Tyrosine-protein kinase ABL1 (Homo sapiens), P00519 [T315I]; conditions: Compound concentration 1000.0 nM
[8] = target: STE20/SPS1-related proline-alanine-rich protein kinase (Homo sapiens) (UniProt Q9UEW8); conditions: Compound concentration 1000.0 nM
[9] = target: Fibroblast growth factor receptor 4 (Homo sapiens) (UniProt P22455); conditions: Compound concentration 1000.0 nM
[10] = target: Alpha-2C adrenergic receptor (Homo sapiens) (UniProt P18825); conditions: Compound concentration 10.0 uM
[11] = target: Mitogen-activated protein kinase kinase kinase 20 (Homo sapiens) (UniProt Q9NYL2); conditions: Compound concentration 1000.0 nM
[12] = target: Calcium/calmodulin-dependent protein kinase type II subunit beta (Homo sapiens) (UniProt Q13554); conditions: Compound concentration 1000.0 nM
Calcium/calmodulin-dependent protein kinase type II subunit beta (Homo sapiens), sequence (Q13554 whole entry): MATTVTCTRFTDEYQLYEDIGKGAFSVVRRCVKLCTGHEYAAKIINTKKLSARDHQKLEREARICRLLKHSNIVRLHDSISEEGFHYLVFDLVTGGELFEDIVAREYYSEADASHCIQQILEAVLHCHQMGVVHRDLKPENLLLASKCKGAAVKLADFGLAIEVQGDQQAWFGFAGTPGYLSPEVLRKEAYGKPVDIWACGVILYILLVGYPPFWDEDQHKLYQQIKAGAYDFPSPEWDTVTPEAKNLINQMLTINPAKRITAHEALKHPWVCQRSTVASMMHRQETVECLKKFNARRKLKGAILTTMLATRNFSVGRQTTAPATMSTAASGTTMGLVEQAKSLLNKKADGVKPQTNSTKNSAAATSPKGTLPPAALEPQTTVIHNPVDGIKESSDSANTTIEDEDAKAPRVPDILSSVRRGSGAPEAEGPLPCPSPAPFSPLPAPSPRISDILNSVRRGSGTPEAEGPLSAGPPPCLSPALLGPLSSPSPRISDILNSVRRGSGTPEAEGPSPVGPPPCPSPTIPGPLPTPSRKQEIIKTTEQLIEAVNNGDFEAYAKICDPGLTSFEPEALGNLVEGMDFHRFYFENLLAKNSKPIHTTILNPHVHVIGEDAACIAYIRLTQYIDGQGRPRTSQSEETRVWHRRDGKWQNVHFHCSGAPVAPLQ

[13] = target: Myotonin-protein kinase (Homo sapiens) (UniProt Q09013); conditions: Compound concentration 1000.0 nM
[14] = target: Serine/threonine-protein kinase DCLK3 (Homo sapiens) (UniProt Q9C098); conditions: Compound concentration 1000.0 nM
Serine/threonine-protein kinase DCLK3 (Homo sapiens), sequence (Q9C098 whole entry): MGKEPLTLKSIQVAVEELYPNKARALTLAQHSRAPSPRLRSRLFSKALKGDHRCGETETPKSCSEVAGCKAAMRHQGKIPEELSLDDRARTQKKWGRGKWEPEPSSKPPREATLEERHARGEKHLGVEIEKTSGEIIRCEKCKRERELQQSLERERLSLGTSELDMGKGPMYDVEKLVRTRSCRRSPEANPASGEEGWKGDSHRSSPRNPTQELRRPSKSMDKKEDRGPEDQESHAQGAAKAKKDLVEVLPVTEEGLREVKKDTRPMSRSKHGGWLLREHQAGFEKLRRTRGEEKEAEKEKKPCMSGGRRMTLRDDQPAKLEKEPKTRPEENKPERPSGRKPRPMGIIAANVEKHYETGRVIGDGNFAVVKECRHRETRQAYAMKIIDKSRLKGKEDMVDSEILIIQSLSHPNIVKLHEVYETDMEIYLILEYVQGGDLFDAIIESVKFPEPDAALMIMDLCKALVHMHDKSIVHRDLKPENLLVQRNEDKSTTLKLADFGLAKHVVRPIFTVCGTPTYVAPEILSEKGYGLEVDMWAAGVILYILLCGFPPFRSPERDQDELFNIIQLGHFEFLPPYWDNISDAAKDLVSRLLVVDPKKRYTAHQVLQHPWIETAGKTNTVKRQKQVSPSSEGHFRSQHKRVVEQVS

[15] = target: Dual specificity tyrosine-phosphorylation-regulated kinase 1B (Homo sapiens) (UniProt Q9Y463); conditions: Compound concentration 1000.0 nM
[16] = target: Serine/threonine-protein kinase 32C (Homo sapiens) (UniProt Q86UX6); conditions: Compound concentration 1000.0 nM
[17] = target: Dual specificity mitogen-activated protein kinase kinase 7 (Homo sapiens) (UniProt O14733); conditions: Compound concentration 1000.0 nM
Dual specificity mitogen-activated protein kinase kinase 7 (Homo sapiens), sequence (O14733 whole entry): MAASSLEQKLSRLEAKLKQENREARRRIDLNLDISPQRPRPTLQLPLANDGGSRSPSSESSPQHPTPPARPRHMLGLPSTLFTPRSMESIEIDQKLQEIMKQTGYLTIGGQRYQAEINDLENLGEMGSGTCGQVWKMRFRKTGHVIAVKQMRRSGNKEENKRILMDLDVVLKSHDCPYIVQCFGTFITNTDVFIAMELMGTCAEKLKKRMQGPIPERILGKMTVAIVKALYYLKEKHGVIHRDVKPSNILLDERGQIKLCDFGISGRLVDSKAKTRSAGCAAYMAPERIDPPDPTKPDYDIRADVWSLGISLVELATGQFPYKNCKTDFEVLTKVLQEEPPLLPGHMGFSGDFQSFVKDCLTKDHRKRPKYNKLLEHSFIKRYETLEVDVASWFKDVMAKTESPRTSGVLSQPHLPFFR

[18] = target: Tyrosine-protein kinase Mer (Homo sapiens) (UniProt Q12866); conditions: Compound concentration 1000.0 nM
[19] = target: G protein-coupled receptor kinase 4 (Homo sapiens) (UniProt P32298); conditions: Compound concentration 1000.0 nM
[20] = target: Inhibitor of nuclear factor kappa-B kinase subunit beta (Homo sapiens) (UniProt O14920); conditions: Compound concentration 1000.0 nM
[21] = target: Serine/threonine-protein kinase SIK3 (Homo sapiens) (UniProt Q9Y2K2); conditions: Compound concentration 1000.0 nM
[22] = target: MAP kinase-activated protein kinase 5 (Homo sapiens) (UniProt Q8IW41); conditions: Compound concentration 1000.0 nM
MAP kinase-activated protein kinase 5 (Homo sapiens), sequence (Q8IW41 whole entry): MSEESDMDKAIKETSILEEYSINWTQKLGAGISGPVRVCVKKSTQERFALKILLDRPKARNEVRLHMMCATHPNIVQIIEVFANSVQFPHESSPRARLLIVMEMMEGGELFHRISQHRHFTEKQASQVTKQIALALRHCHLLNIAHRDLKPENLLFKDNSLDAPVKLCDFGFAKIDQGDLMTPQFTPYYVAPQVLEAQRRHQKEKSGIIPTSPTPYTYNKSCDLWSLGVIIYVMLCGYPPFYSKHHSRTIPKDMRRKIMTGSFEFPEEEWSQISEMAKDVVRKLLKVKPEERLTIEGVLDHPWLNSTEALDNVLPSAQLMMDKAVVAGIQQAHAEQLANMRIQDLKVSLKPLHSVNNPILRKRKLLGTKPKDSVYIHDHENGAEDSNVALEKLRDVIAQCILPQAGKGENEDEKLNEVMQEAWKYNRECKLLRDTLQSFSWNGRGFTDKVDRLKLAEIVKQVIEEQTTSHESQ

[23] = target: Serine/threonine-protein kinase TAO2 (Homo sapiens) (UniProt Q9UL54); conditions: Compound concentration 1000.0 nM
[24] = target: Ribosomal protein S6 kinase alpha-4 (Homo sapiens) (UniProt O75676); conditions: Compound concentration 1000.0 nM
[25] = system: Mast/stem cell growth factor receptor Kit (Homo sapiens), P10721 [V559D,V654A]; conditions: Compound concentration 1000.0 nM
[26] = target: Ephrin type-A receptor 5 (Homo sapiens) (UniProt P54756); conditions: Compound concentration 1000.0 nM
[27] = target: Ephrin type-A receptor 1 (Homo sapiens) (UniProt P21709); conditions: Compound concentration 1000.0 nM
[28] = target: Phosphatidylinositol 4,5-bisphosphate 3-kinase catalytic subunit alpha isoform (Homo sapiens) (UniProt P42336); conditions: Compound concentration 1000.0 nM
[29] = target: RAC-alpha serine/threonine-protein kinase (Homo sapiens) (UniProt P31749); conditions: Compound concentration 1000.0 nM
[30] = target: Tyrosine-protein kinase JAK1 (Homo sapiens) (UniProt P23458); conditions: Compound concentration 1000.0 nM
Tyrosine-protein kinase JAK1 (Homo sapiens), sequence (P23458 whole entry): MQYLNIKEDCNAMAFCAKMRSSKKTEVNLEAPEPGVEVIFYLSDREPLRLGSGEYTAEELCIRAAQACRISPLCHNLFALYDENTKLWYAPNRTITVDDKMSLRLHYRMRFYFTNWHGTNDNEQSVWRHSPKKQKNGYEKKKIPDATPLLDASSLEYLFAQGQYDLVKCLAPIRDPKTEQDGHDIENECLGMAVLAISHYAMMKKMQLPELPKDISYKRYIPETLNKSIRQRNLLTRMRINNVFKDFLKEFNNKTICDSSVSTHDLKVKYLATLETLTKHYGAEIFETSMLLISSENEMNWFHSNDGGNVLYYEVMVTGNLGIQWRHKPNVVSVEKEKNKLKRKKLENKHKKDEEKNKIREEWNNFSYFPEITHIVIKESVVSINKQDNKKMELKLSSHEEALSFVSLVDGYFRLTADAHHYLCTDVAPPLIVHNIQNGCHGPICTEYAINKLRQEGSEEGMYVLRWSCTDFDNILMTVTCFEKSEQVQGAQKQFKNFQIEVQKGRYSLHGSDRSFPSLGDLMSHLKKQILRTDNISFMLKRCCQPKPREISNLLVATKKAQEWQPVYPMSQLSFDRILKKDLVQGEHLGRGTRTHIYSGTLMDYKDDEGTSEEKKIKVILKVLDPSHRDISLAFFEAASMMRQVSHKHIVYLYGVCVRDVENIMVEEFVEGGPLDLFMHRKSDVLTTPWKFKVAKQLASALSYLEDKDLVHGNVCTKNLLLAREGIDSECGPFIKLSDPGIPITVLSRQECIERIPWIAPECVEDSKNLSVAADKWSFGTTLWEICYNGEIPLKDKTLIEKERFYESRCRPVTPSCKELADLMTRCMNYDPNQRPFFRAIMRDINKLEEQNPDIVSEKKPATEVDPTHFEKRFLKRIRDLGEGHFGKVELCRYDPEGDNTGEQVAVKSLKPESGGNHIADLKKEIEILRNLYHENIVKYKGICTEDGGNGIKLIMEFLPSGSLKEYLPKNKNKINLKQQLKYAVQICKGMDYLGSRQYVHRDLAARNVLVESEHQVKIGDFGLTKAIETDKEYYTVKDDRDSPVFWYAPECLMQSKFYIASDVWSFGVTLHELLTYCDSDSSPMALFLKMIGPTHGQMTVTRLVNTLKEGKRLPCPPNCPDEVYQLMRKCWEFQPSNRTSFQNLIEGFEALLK

[31] = target: Receptor-type tyrosine-protein kinase FLT3 (Homo sapiens) (UniProt P36888); conditions: Compound concentration 1000.0 nM
[32] = target: Microtubule-associated serine/threonine-protein kinase 1 (Homo sapiens) (UniProt Q9Y2H9); conditions: Compound concentration 1000.0 nM
[33] = target: D(4) dopamine receptor (Homo sapiens) (UniProt P21917); conditions: Compound concentration 10.0 uM
[34] = target: Cyclin-dependent kinase 11A (Homo sapiens) (UniProt Q9UQ88); conditions: Compound concentration 1000.0 nM
[35] = target: Myosin-IIIb (Homo sapiens) (UniProt Q8WXR4); conditions: Compound concentration 1000.0 nM
[36] = target: Myosin light chain kinase family member 4 (Homo sapiens) (UniProt Q86YV6); conditions: Compound concentration 1000.0 nM
[37] = target: Tyrosine-protein kinase Srms (Homo sapiens) (UniProt Q9H3Y6); conditions: Compound concentration 1000.0 nM
[38] = target: cAMP-dependent protein kinase catalytic subunit alpha (Homo sapiens) (UniProt P17612); conditions: Compound concentration 1000.0 nM
[39] = target: Mitogen-activated protein kinase kinase kinase kinase 4 (Homo sapiens) (UniProt O95819); conditions: Compound concentration 1000.0 nM
[40] = target: Serine/threonine-protein kinase N1 (Homo sapiens) (UniProt Q16512); conditions: Compound concentration 1000.0 nM
[41] = target: Protein-tyrosine kinase 2-beta (Homo sapiens) (UniProt Q14289); conditions: Compound concentration 1000.0 nM
[42] = system: Epidermal growth factor receptor (Homo sapiens), P00533 [UNDEFINED MUTATION]; conditions: Compound concentration 1000.0 nM
[43] = target: Ephrin type-B receptor 3 (Homo sapiens) (UniProt P54753); conditions: Compound concentration 1000.0 nM
[44] = target: Uncharacterized serine/threonine-protein kinase SBK3 (Homo sapiens) (UniProt P0C264); conditions: Compound concentration 1000.0 nM
[45] = target: Peripheral plasma membrane protein CASK (Homo sapiens) (UniProt O14936); conditions: Compound concentration 1000.0 nM

Rho-associated protein kinase 2 (Homo sapiens), sequence (O75116 whole entry, looked up): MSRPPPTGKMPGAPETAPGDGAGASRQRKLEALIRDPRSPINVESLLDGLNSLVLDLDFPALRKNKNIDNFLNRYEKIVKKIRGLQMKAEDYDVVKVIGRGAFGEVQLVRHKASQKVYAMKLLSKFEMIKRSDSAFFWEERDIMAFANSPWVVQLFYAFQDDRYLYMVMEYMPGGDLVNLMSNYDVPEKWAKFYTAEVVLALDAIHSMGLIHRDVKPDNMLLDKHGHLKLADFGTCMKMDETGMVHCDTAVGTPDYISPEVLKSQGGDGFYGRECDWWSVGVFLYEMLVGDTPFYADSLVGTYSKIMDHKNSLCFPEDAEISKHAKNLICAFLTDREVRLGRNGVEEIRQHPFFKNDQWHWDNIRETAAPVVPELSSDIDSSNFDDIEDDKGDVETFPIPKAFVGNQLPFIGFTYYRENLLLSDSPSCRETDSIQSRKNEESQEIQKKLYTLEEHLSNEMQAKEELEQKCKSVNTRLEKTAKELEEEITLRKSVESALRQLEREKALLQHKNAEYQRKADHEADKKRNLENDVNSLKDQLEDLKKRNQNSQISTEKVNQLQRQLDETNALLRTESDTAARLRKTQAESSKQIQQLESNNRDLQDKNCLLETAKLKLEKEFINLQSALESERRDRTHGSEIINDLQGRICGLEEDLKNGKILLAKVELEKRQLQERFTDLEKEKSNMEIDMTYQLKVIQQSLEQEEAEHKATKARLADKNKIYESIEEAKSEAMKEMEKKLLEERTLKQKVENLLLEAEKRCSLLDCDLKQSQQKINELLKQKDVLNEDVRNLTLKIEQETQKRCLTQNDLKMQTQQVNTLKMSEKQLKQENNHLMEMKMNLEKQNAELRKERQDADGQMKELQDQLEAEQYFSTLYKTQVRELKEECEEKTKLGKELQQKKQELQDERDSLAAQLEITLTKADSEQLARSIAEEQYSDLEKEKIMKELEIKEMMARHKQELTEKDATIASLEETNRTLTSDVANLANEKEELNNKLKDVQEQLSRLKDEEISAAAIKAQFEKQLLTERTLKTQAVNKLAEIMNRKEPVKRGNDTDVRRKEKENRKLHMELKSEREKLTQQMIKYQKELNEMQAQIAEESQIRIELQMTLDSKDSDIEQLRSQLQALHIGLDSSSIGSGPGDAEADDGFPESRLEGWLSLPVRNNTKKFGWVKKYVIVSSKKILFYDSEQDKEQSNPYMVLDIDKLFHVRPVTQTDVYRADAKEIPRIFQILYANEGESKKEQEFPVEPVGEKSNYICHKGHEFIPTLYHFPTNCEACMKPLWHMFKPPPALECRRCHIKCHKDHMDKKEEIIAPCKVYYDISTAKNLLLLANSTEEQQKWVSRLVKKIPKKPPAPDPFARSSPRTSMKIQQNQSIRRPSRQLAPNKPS

O=C(Nc1ccc(Oc2ccc(F)cc2)cc1)N1CCc2ncccc2[C@H]1c1ccc(F)cc1 [BAY-897]
inactive: residual activity [1] 93% | residual activity [2] 100% | residual activity [3] 100% | residual activity [4] 92% | residual activity [5] 89% | residual activity [6] 90% | residual activity [7] 98% | residual activity [8] 82% | residual activity [9] 95% | inhibition [10] 8.47% | residual activity [11] 100% | residual activity [12] 100% | residual activity [13] 91% | residual activity [14] 93% | residual activity [15] 88% | residual activity [16] 75% | residual activity [17] 100% | residual activity [18] 96% | residual activity [19] 93% | residual activity [20] 100% | residual activity [21] 100% | residual activity [22] 75% | residual activity [23] 100% | residual activity [24] 94% | residual activity [25] 90% | residual activity [26] 100% | residual activity [27] 100% | residual activity [28] 83% | residual activity [29] 95% | residual activity [30] 100% | residual activity [31] 77% | residual activity [32] 79% | inhibition [33] 0.29% | residual activity [34] 92% | residual activity [35] 83% | residual activity [36] 97% | residual activity [37] 94% | residual activity [38] 95% | residual activity [39] 100% | residual activity [40] 100% | residual activity [41] 89% | residual activity [42] 74% | residual activity [43] 100% | residual activity [44] 70% | residual activity [45] 100%

O=C(Nc1cnc(Oc2ccc(F)cc2)nc1)N1CCc2ncccc2[C@@H]1c1ccc(F)cc1 [BAY-899]
inactive: residual activity [1] 100% | residual activity [2] 100% | residual activity [3] 98% | residual activity [4] 95% | residual activity [5] 92% | residual activity [6] 100% | residual activity [7] 100% | residual activity [8] 77% | residual activity [9] 98% | inhibition [10] 8.55% | residual activity [11] 100% | residual activity [12] 92% | residual activity [13] 98% | residual activity [14] 96% | residual activity [15] 78% | residual activity [16] 96% | residual activity [17] 95% | residual activity [18] 100% | residual activity [19] 67% | residual activity [20] 100% | residual activity [21] 86% | residual activity [22] 91% | residual activity [23] 87% | residual activity [24] 91% | residual activity [25] 84% | residual activity [26] 100% | residual activity [27] 100% | residual activity [28] 100% | residual activity [29] 100% | residual activity [30] 96% | residual activity [31] 84% | residual activity [32] 96% | inhibition [33] 43.8% | residual activity [34] 91% | residual activity [35] 100% | residual activity [36] 88% | residual activity [37] 95% | residual activity [38] 82% | residual activity [39] 86% | residual activity [40] 95% | residual activity [41] 100% | residual activity [42] 100% | residual activity [43] 100% | residual activity [44] 90% | residual activity [45] 94%
